From ChEMBL document CHEMBL1156406, “New Xenia diterpenoids from the Indonesian soft coral Xenia sp” (J Nat Prod, 2002)

Key:
Type in all cases: functional, cell-based
SK-MEL-28 = assay: Cytotoxicity against human SK-MEL-28 cells
HT-29 = assay: Cytotoxicity against human HT-29 cells
P388 = assay: Cytotoxicity against mouse P388 cells
A549 = assay: Cytotoxicity against human A549 cells

Measured: IC50

C=C1CC[C@@H]2/C(=C/C=C/C(C)(C)O)C(=O)OC[C@H]2C(=C)CC[C@@H]1O
> 1 µg/mL: SK-MEL-28 | HT-29 | P388 | A549

C=C1CC[C@@H]2/C(=C/C=C/C(C)(C)O)C(=O)OC[C@H]2C(=C)C[C@@H](O)[C@@H]1O
> 1 µg/mL: SK-MEL-28 | HT-29 | P388 | A549

C=C1C[C@@H](O)C2OC2(C)CC[C@@H]2/C(=C/C=C/C(C)(C)O)C(=O)OC[C@@H]12 (stereo partly specified)
> 1 µg/mL: SK-MEL-28 | HT-29 | P388 | A549

C=C1C[C@@H](O)/C=C(\C)CC[C@@H]2/C(=C/C=C/C(C)(C)O)C(=O)OC[C@@H]12 [ISOXENIOLIDE A]
> 1 µg/mL: SK-MEL-28 | HT-29 | P388 | A549
